Data published in patent US20040076586A1, “Compositions and methods for delivering pharmaceutically active agents using nanoparticulates” (priority 2002, published 2004).

In the case of `CCOC(=O)CCCCCOC(=O)c1c(I)c(NC(C)=O)c(I)c(NC(C)=O)c1I` [PH-50, 6-ethoxy-6-oxohexy-3,5-bis(acetylamino)-2,4,6-triiodobenzoate], the “half-life in the vascular structures” value (at functionally active concentrations, until metabolized by the liver) was 30 to 60 min and the route of excretion (in vivo) was “excreted from the body via the hepatic system rather than the renal system”.
